Experimental data taken from PubChem BioAssay AID1745844 (Carcinogenic Potency Database (CPDB), 2022).
Active and inactive are the calls of the source. The rule behind the calls is not given here.

System: rodent lifetime carcinogenesis bioassay, tumor incidence TD50
Experiment: chronic cancer bioassays in animals – CPDB, compiled studies (AID 1745844)

C/C(=C(\CCOC(=O)c1ccccc1)SC(=O)c1ccccc1)N(C=O)Cc1cnc(C)nc1N
TD50 (rat, strain Sprague-Dawley, females, in feed, site: any site (literature study), lesion: malignant tumor, dosed 105 weeks, study length 105 weeks): 14300 mg/kg/day (inactive)
carcinogen call (rat, strain Sprague-Dawley, females, in feed, site: any site (literature study), lesion: several types, types named in the paper, dosed 105 weeks, study length 105 weeks): negative (inactive)
carcinogen call (rat, strain Sprague-Dawley, females, in feed, site: liver, lesion: hemangiosarcoma anaplastic, dosed 105 weeks, study length 105 weeks): negative (inactive)
TD50 (rat, strain Sprague-Dawley, males, in feed, site: any site (literature study), lesion: malignant tumor, dosed 105 weeks, study length 105 weeks): 2340 mg/kg/day (inactive)
carcinogen call (rat, strain Sprague-Dawley, males, in feed, site: any site (literature study), lesion: several types, types named in the paper, dosed 105 weeks, study length 105 weeks): negative (inactive)
TD50 (rat, strain Sprague-Dawley, males, in feed, site: liver, lesion: liver-cell tumor, benign, dosed 105 weeks, study length 105 weeks): 6980 mg/kg/day (inactive)
TD50 (rat, strain Sprague-Dawley, males, in feed, site: liver, lesion: liver-cell tumor, malignant, dosed 105 weeks, study length 105 weeks): 6770 mg/kg/day (inactive)

ClC(Cl)C(Cl)(Cl)Cl
TD50 (mouse, strain B6C3F1, females, by gavage, site: any site (literature study), lesion: several types, types named in the paper, dosed 103 weeks, study length 104 weeks): 39.5 mg/kg/day
TD50 (mouse, strain B6C3F1, females, by gavage, site: liver, lesion: hepatocellular adenoma + hepatocellular carcinoma + neoplastic nodule, dosed 103 weeks, study length 104 weeks): 39.8 mg/kg/day
TD50 (mouse, strain B6C3F1, females, by gavage, site: liver, lesion: hepatocellular adenoma + hepatocellular carcinoma, dosed 103 weeks, study length 104 weeks): 39.8 mg/kg/day
TD50 (mouse, strain B6C3F1, females, by gavage, site: liver, lesion: hepatocellular adenoma, dosed 103 weeks, study length 104 weeks): 153 mg/kg/day
TD50 (mouse, strain B6C3F1, females, by gavage, site: liver, lesion: hepatocellular carcinoma, dosed 103 weeks, study length 104 weeks): 66.6 mg/kg/day
TD50 (mouse, strain B6C3F1, females, by gavage, site: lung, lesion: alveolar/bronchiolar adenoma + alveolar/bronchiolar carcinoma, dosed 103 weeks, study length 104 weeks): 1030 mg/kg/day
TD50 (mouse, strain B6C3F1, males, by gavage, site: any site (literature study), lesion: several types, types named in the paper, dosed 103 weeks, study length 104 weeks): 85.6 mg/kg/day
TD50 (mouse, strain B6C3F1, males, by gavage, site: liver, lesion: hepatocellular adenoma + hepatocellular carcinoma + neoplastic nodule, dosed 103 weeks, study length 104 weeks): 107 mg/kg/day
TD50 (mouse, strain B6C3F1, males, by gavage, site: liver, lesion: hepatocellular adenoma + hepatocellular carcinoma, dosed 103 weeks, study length 104 weeks): 107 mg/kg/day
TD50 (mouse, strain B6C3F1, males, by gavage, site: liver, lesion: hepatocellular carcinoma, dosed 103 weeks, study length 104 weeks): 102 mg/kg/day
TD50 (rat, strain Fischer 344, females, by gavage, site: any site (literature study), lesion: several types, types named in the paper, dosed 103 weeks, study length 104 weeks): 1660 mg/kg/day (inactive)
TD50 (rat, strain Fischer 344, males, by gavage, site: kidney, lesion: tubular-cell adenoma + tubular-cell adenocarcinoma, dosed 103 weeks, study length 104 weeks): 662 mg/kg/day
TD50 (rat, strain Fischer 344, males, by gavage, site: kidney, lesion: tubular-cell adenoma, dosed 103 weeks, study length 104 weeks): 635 mg/kg/day

NC(=O)Cc1cccc2ccccc12
TD50 (mouse, strain B6AKF1, females, oral dosing, site: any site (literature study), lesion: several types, types named in the paper, dosed 76 weeks, study length 76 weeks): 956 mg/kg/day (inactive)
carcinogen call (mouse, strain B6AKF1, females, oral dosing, site: liver, lesion: hepatoma, dosed 76 weeks, study length 76 weeks): negative (inactive)
carcinogen call (mouse, strain B6AKF1, females, oral dosing, site: lung, lesion: adenoma, dosed 76 weeks, study length 76 weeks): negative (inactive)
carcinogen call (mouse, strain B6AKF1, males, oral dosing, site: any site (literature study), lesion: several types, types named in the paper, dosed 76 weeks, study length 76 weeks): negative (inactive)
carcinogen call (mouse, strain B6AKF1, males, oral dosing, site: liver, lesion: hepatoma, dosed 76 weeks, study length 76 weeks): negative (inactive)
carcinogen call (mouse, strain B6AKF1, males, oral dosing, site: lung, lesion: adenoma, dosed 76 weeks, study length 76 weeks): negative (inactive)
TD50 (mouse, strain B6C3F1, females, oral dosing, site: any site (literature study), lesion: several types, types named in the paper, dosed 76 weeks, study length 76 weeks): 213 mg/kg/day (inactive)
TD50 (mouse, strain B6C3F1, females, oral dosing, site: liver, lesion: hepatoma, dosed 76 weeks, study length 76 weeks): 956 mg/kg/day (inactive)
TD50 (mouse, strain B6C3F1, females, oral dosing, site: lung, lesion: adenoma, dosed 76 weeks, study length 76 weeks): 461 mg/kg/day (inactive)
TD50 (mouse, strain B6C3F1, males, oral dosing, site: any site (literature study), lesion: several types, types named in the paper, dosed 76 weeks, study length 76 weeks): 141 mg/kg/day (inactive)
TD50 (mouse, strain B6C3F1, males, oral dosing, site: liver, lesion: hepatoma, dosed 76 weeks, study length 76 weeks): 316 mg/kg/day (inactive)
TD50 (mouse, strain B6C3F1, males, oral dosing, site: lung, lesion: adenoma, dosed 76 weeks, study length 76 weeks): 1010 mg/kg/day (inactive)

CCCCN(N=O)C(=N)N[N+](=O)[O-]
carcinogen call (rat, strain Wistar, males, in drinking water, site: stomach, glandular, lesion: one or several types, types not named, dosed 52 weeks, study length 78 weeks): negative (inactive)

CC(C)C/C=N/N(C)C=O
TD50 (mouse, strain Swiss albino, females, by gavage, site: gall bladder, lesion: adenocarcinoma, dosed 53 weeks, study length 127 weeks): 151 mg/kg/day
TD50 (mouse, strain Swiss albino, females, by gavage, site: gall bladder, lesion: adenoma, dosed 53 weeks, study length 127 weeks): 36.5 mg/kg/day
TD50 (mouse, strain Swiss albino, females, by gavage, site: gall bladder, lesion: several types, types named in the paper, dosed 53 weeks, study length 127 weeks): 28.9 mg/kg/day
TD50 (mouse, strain Swiss albino, females, by gavage, site: liver, lesion: hepatocellular carcinoma, dosed 53 weeks, study length 127 weeks): 74.6 mg/kg/day
TD50 (mouse, strain Swiss albino, females, by gavage, site: liver, lesion: hepatoma, dosed 53 weeks, study length 127 weeks): 9.27 mg/kg/day
TD50 (mouse, strain Swiss albino, females, by gavage, site: liver, lesion: several types, types named in the paper, dosed 53 weeks, study length 127 weeks): 7.9 mg/kg/day
TD50 (mouse, strain Swiss albino, females, by gavage, site: lung, lesion: adenocarcinoma, dosed 53 weeks, study length 127 weeks): 8.7 mg/kg/day
TD50 (mouse, strain Swiss albino, females, by gavage, site: lung, lesion: adenoma, dosed 53 weeks, study length 127 weeks): 2.39 mg/kg/day
TD50 (mouse, strain Swiss albino, females, by gavage, site: lung, lesion: several types, types named in the paper, dosed 53 weeks, study length 127 weeks): 1.99 mg/kg/day
TD50 (mouse, strain Swiss albino, males, by gavage, site: gall bladder, lesion: adenoma, dosed 53 weeks, study length 119 weeks): 46.1 mg/kg/day
TD50 (mouse, strain Swiss albino, males, by gavage, site: liver, lesion: hepatocellular carcinoma, dosed 53 weeks, study length 119 weeks): 34.2 mg/kg/day
TD50 (mouse, strain Swiss albino, males, by gavage, site: liver, lesion: hepatoma, dosed 53 weeks, study length 119 weeks): 8 mg/kg/day
TD50 (mouse, strain Swiss albino, males, by gavage, site: liver, lesion: several types, types named in the paper, dosed 53 weeks, study length 119 weeks): 5.97 mg/kg/day
TD50 (mouse, strain Swiss albino, males, by gavage, site: lung, lesion: adenocarcinoma, dosed 53 weeks, study length 119 weeks): 10.7 mg/kg/day
TD50 (mouse, strain Swiss albino, males, by gavage, site: lung, lesion: adenoma, dosed 53 weeks, study length 119 weeks): 3.3 mg/kg/day
TD50 (mouse, strain Swiss albino, males, by gavage, site: lung, lesion: several types, types named in the paper, dosed 53 weeks, study length 119 weeks): 2.53 mg/kg/day
TD50 (mouse, strain Swiss albino, males, by gavage, site: preputial gland, lesion: several types, types named in the paper, dosed 53 weeks, study length 119 weeks): 4.36 mg/kg/day
TD50 (mouse, strain Swiss albino, males, by gavage, site: preputial gland, lesion: squamous-cell carcinoma, dosed 53 weeks, study length 119 weeks): 5.59 mg/kg/day
TD50 (mouse, strain Swiss albino, males, by gavage, site: preputial gland, lesion: squamous-cell papilloma, dosed 53 weeks, study length 119 weeks): 34.2 mg/kg/day

NC(N)=Nc1nc(CSCCNc2nsnc2N)cs1
TD50 (rat, strain Charles River CD (Sprague-Dawley), females, by gavage, site: gastric mucosa, lesion: carcinoid tumor, malignant, dosed 105 weeks, study length 105 weeks): 6270 mg/kg/day
TD50 (rat, strain Charles River CD (Sprague-Dawley), males, by gavage, site: gastric mucosa, lesion: carcinoid tumor, malignant, dosed 105 weeks, study length 105 weeks): 4140 mg/kg/day

ClCc1ccccc1
TD50 (mouse, strain B6C3F1, females, by gavage, site: forestomach, lesion: carcinoma, dosed 104 weeks, study length 107 weeks): 445 mg/kg/day
TD50 (mouse, strain B6C3F1, females, by gavage, site: forestomach, lesion: several types, types named in the paper, dosed 104 weeks, study length 107 weeks): 81 mg/kg/day
TD50 (mouse, strain B6C3F1, females, by gavage, site: lung, lesion: several types, types named in the paper, dosed 104 weeks, study length 107 weeks): 337 mg/kg/day
TD50 (mouse, strain B6C3F1, males, by gavage, site: all sites, lesion: all vascular tumors, dosed 104 weeks, study length 107 weeks): 454 mg/kg/day
TD50 (mouse, strain B6C3F1, males, by gavage, site: forestomach, lesion: carcinoma, dosed 104 weeks, study length 107 weeks): 221 mg/kg/day
TD50 (mouse, strain B6C3F1, males, by gavage, site: forestomach, lesion: several types, types named in the paper, dosed 104 weeks, study length 107 weeks): 49.6 mg/kg/day
TD50 (mouse, strain B6C3F1, males, by gavage, site: liver, lesion: several types, types named in the paper, dosed 104 weeks, study length 107 weeks): 225 mg/kg/day
TD50 (rat, strain Fischer 344, females, by gavage, site: liver, lesion: neoplastic nodule, dosed 104 weeks, study length 107 weeks): 330 mg/kg/day
TD50 (rat, strain Fischer 344, females, by gavage, site: thyroid gland, lesion: several types, types named in the paper, dosed 104 weeks, study length 107 weeks): 40.6 mg/kg/day
